From patent US11377442B2, “Small molecule agonists and antagonists of NR2F6 activity” (ZANDER THERAPEUTICS, INC., priority 2016, dated 2022)
Where two headings read alike, the source gives them in different places.

Columns and labels:
Type in all cases: cell-based
NR2F6 = target: T1, NR2F6 (Homo sapiens, UniProt P10588); test: NR2F6 agonist screening, Firefly signal cmpd/DMSO
T1 construct: expressed in transfected cells; also transient transfection
T1 sequence (P10588 1-404): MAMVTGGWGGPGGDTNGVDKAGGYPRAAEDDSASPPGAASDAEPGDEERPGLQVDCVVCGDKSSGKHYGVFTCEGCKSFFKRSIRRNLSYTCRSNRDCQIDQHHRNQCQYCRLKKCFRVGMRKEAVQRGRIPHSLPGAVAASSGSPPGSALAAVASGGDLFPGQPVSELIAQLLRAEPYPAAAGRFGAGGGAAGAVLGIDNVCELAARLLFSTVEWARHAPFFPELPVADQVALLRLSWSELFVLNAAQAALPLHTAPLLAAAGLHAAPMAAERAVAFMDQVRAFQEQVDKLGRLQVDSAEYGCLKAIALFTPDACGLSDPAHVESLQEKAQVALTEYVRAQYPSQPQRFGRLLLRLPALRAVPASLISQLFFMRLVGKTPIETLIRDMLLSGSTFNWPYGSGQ

Renilla = Renilla signal in NR2F6 agonist screening, cmpd/DMSO; details: Renilla, F4
HEK293 pGL4 = test: Firefly_pGL signal, cmpd/DMSO (pGL4 control cells); details: Homo sapiens
NR2F6 LBD = target: T2, NR2F6 LBD (Homo sapiens, UniProt P10588); test: NR2F6 LBD transient transfection; details: LBD
T2 construct: expressed in transfected cells
T2 sequence (P10588 165-393 limits assumed): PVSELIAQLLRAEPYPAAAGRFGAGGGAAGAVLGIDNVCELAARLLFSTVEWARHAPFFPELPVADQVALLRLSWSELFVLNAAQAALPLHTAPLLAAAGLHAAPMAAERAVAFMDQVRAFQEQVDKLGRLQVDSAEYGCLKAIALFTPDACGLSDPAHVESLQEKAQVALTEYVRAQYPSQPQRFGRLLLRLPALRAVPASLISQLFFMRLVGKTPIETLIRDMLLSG
In short: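 LBD-transfected cells treated at 40, 10, 2 and 0.5 μM (4 replicates); cytotoxicity measured in parallel, normalized to DMSO (0%) and zero signal (100%). Higher concentrations excluded where signal loss reflected toxicity.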

[1] = read-out: Renilla, F4, cmpd/DMSO (mean)
[2] = 1% FBS, read-out: Renilla, F4, 1% FBS, cmpd/DMSO (mean)
[3] = 10% FBS, read-out: Renilla, F4, 10% FBS, cmpd/DMSO (mean)
[4] = HEK293, 0.5 uM, pGL4, read-out: Firefly pGL4, cmpd/DMSO (mean)
[5] = HEK293, 2 uM, pGL4, read-out: Firefly pGL4, cmpd/DMSO (mean)
[6] = HEK293, 10 uM, pGL4, read-out: Firefly pGL4, cmpd/DMSO (mean)
[7] = HEK293, 40 uM, pGL4, read-out: Firefly pGL4, cmpd/DMSO (mean)
[8] = HEK293, pGL4, 1% FBS, 0.5 uM, read-out: Firefly, pGL4, 1% FBS, cmpd/DMSO (mean)
[9] = HEK293, pGL4, 1% FBS, 2 uM, read-out: Firefly, pGL4, 1% FBS, cmpd/DMSO (mean)
[10] = HEK293, pGL4, 1% FBS, 10 uM, read-out: Firefly, pGL4, 1% FBS, cmpd/DMSO (mean)
[11] = HEK293, pGL4, 1% FBS, 40 uM, read-out: Firefly, pGL4, 1% FBS, cmpd/DMSO (mean)
[12] = HEK293, pGL4, 10% FBS, 0.5 uM, read-out: Firefly, pGL4, 10% FBS, cmpd/DMSO (mean)
[13] = HEK293, pGL4, 10% FBS, 2 uM, read-out: Firefly, pGL4, 10% FBS, cmpd/DMSO (mean)
[14] = HEK293, pGL4, 10% FBS, 10 uM, read-out: Firefly, pGL4, 10% FBS, cmpd/DMSO (mean)
[15] = HEK293, pGL4, 10% FBS, 40 uM, read-out: Firefly, pGL4, 10% FBS, cmpd/DMSO (mean)

SMILES: CCCN[C@H]1CS(=O)(=O)C[C@@H]1S(=O)(=O)c1ccc(Cl)cc1 [Compound D117]
- Firefly F4, cmpd/DMSO (mean) (NR2F6; 0.5 uM): 1.1
- Firefly F4, cmpd/DMSO (mean) (NR2F6; 2 uM): 2.2
- Firefly F4, cmpd/DMSO (mean) (NR2F6; 10 uM): 4.7
- Firefly F4, cmpd/DMSO (mean) (NR2F6; 40 uM): 0.5
- F4, Firefly/Renilla for S/B(F4) > 3 (NR2F6; 1% FBS, 10 uM): 3.4
- Firefly, F4/pGL4 for S/B(F4) > 3 (NR2F6; 1% FBS, 10 uM): 3.2
- F4, Firefly/Renilla for S/B(F4) > 3 (NR2F6; 10% FBS, 10 uM): 2.3
- Firefly, F4/pGL4 for S/B(F4) > 3 (NR2F6; 10% FBS, 10 uM): 1.9
- Firefly, F4, 1% FBS, cmpd/DMSO (mean) (NR2F6; 1% FBS, 0.5 uM): 0.9
- Firefly, F4, 1% FBS, cmpd/DMSO (mean) (NR2F6; 1% FBS, 2 uM): 2.1
- Firefly, F4, 1% FBS, cmpd/DMSO (mean) (NR2F6; 1% FBS, 10 uM): 5.9
- Firefly, F4, 1% FBS, cmpd/DMSO (mean) (NR2F6; 1% FBS, 40 uM): 0.1
- Firefly, F4, 10% FBS, cmpd/DMSO (mean) (NR2F6; 10% FBS, 0.5 uM): 0.9
- Firefly, F4, 10% FBS, cmpd/DMSO (mean) (NR2F6; 10% FBS, 2 uM): 1.2
- Firefly, F4, 10% FBS, cmpd/DMSO (mean) (NR2F6; 10% FBS, 10 uM): 4.1
- Firefly, F4, 10% FBS, cmpd/DMSO (mean) (NR2F6; 10% FBS, 40 uM): 2.9
- fold induction at 0.5 µM (Renilla; [1]): 1
- fold induction at 2 µM (Renilla; [1]): 1.3
- fold induction at 10 µM (Renilla; [1]): 1.7
- fold induction at 40 µM (Renilla; [1]): 0.4
- fold induction at 0.5 µM (Renilla; [2]): 1
- fold induction at 2 µM (Renilla; [2]): 1.4
- fold induction at 10 µM (Renilla; [2]): 1.7
- fold induction at 40 µM (Renilla; [2]): 0.8
- fold induction at 0.5 µM (Renilla; [3]): 1
- fold induction at 2 µM (Renilla; [3]): 1
- fold induction at 10 µM (Renilla; [3]): 1.8
- fold induction at 40 µM (Renilla; [3]): 2.4
- fold induction at 0.5 µM (HEK293 pGL4; [4]): 1
- fold induction at 2 µM (HEK293 pGL4; [5]): 1.4
- fold induction at 10 µM (HEK293 pGL4; [6]): 4.6
- fold induction at 40 µM (HEK293 pGL4; [7]): 0.3
- fold induction at 0.5 µM (HEK293 pGL4; [8]): 1
- fold induction at 2 µM (HEK293 pGL4; [9]): 1.4
- fold induction at 10 µM (HEK293 pGL4; [10]): 1.9
- fold induction at 40 µM (HEK293 pGL4; [11]): 0.6
- fold induction at 0.5 µM (HEK293 pGL4; [12]): 1.1
- fold induction at 2 µM (HEK293 pGL4; [13]): 1.6
- fold induction at 10 µM (HEK293 pGL4; [14]): 2.2
- fold induction at 40 µM (HEK293 pGL4; [15]): 1.2
- Firefly LBD, cmpd/DMSO (mean) (NR2F6 LBD; 0.5 uM): 1.1
- Firefly LBD, cmpd/DMSO (mean) (NR2F6 LBD; 2 uM): 2.1
- Firefly LBD, cmpd/DMSO (mean) (NR2F6 LBD; 10 uM): 4.2
- Firefly LBD, cmpd/DMSO (mean) (NR2F6 LBD; 40 uM): 0.2

SMILES: Cc1cc(S(=O)(=O)[C@H]2CS(=O)(=O)C[C@@H]2NCC2CCCO2)ccc1F (stereo partly drawn) [Compound D115]
- Firefly F4, cmpd/DMSO (mean) (NR2F6; 0.5 uM): 1.0
- Firefly F4, cmpd/DMSO (mean) (NR2F6; 2 uM): 1.1
- Firefly F4, cmpd/DMSO (mean) (NR2F6; 10 uM): 1.4
- Firefly F4, cmpd/DMSO (mean) (NR2F6; 40 uM): 2.2
- Firefly, F4, 1% FBS, cmpd/DMSO (mean) (NR2F6; 1% FBS, 0.5 uM): 1.0
- Firefly, F4, 1% FBS, cmpd/DMSO (mean) (NR2F6; 1% FBS, 2 uM): 0.8
- Firefly, F4, 1% FBS, cmpd/DMSO (mean) (NR2F6; 1% FBS, 10 uM): 1.1
- Firefly, F4, 1% FBS, cmpd/DMSO (mean) (NR2F6; 1% FBS, 40 uM): 1.8
- Firefly, F4, 10% FBS, cmpd/DMSO (mean) (NR2F6; 10% FBS, 0.5 uM): 1.5
- Firefly, F4, 10% FBS, cmpd/DMSO (mean) (NR2F6; 10% FBS, 2 uM): 1.3
- Firefly, F4, 10% FBS, cmpd/DMSO (mean) (NR2F6; 10% FBS, 10 uM): 0.7
- Firefly, F4, 10% FBS, cmpd/DMSO (mean) (NR2F6; 10% FBS, 40 uM): 1.3
- fold induction at 0.5 µM (Renilla; [1]): 1
- fold induction at 2 µM (Renilla; [1]): 1
- fold induction at 10 µM (Renilla; [1]): 1
- fold induction at 40 µM (Renilla; [1]): 1.1
- fold induction at 0.5 µM (Renilla; [2]): 1.1
- fold induction at 2 µM (Renilla; [2]): 1
- fold induction at 10 µM (Renilla; [2]): 1.2
- fold induction at 40 µM (Renilla; [2]): 1.5
- fold induction at 0.5 µM (Renilla; [3]): 1
- fold induction at 2 µM (Renilla; [3]): 1
- fold induction at 10 µM (Renilla; [3]): 1.1
- fold induction at 40 µM (Renilla; [3]): 1.3
- fold induction at 0.5 µM (HEK293 pGL4; [4]): 1.2
- fold induction at 2 µM (HEK293 pGL4; [5]): 1.2
- fold induction at 10 µM (HEK293 pGL4; [6]): 1.3
- fold induction at 40 µM (HEK293 pGL4; [7]): 2
- fold induction at 0.5 µM (HEK293 pGL4; [8]): 1.1
- fold induction at 2 µM (HEK293 pGL4; [9]): 1.2
- fold induction at 10 µM (HEK293 pGL4; [10]): 1.2
- fold induction at 40 µM (HEK293 pGL4; [11]): 1.6
- fold induction at 0.5 µM (HEK293 pGL4; [12]): 1.2
- fold induction at 2 µM (HEK293 pGL4; [13]): 1.2
- fold induction at 10 µM (HEK293 pGL4; [14]): 1.6
- fold induction at 40 µM (HEK293 pGL4; [15]): 2.1
- Firefly LBD, cmpd/DMSO (mean) (NR2F6 LBD; 0.5 uM): 0.9
- Firefly LBD, cmpd/DMSO (mean) (NR2F6 LBD; 2 uM): 0.9
- Firefly LBD, cmpd/DMSO (mean) (NR2F6 LBD; 10 uM): 1.3
- Firefly LBD, cmpd/DMSO (mean) (NR2F6 LBD; 40 uM): 2.2
